Test results reported in patent US20240124410A1, “SMALL MOLECULES AND THEIR USE AS MALT1 INHIBITORS” (University of Pittsburgh - Of the Commonwealth System of …, priority 2021, published 2024).

Legend:
OCI-Ly3 ABC-DLBCL cells = experiment: Cell proliferation (cell count, trypan blue exclusion), OCI-Ly3; type: cell-based; settings: OCI-Ly3, single dose of 1 μM, 12 days
From the text: (§1) Cell number was counted using the trypan blue dye exclusion method with Vi-CELL cell viability analyzer (Beckman Coulter) at days 7, 10, and 12 of treatment with compounds. Cell proliferation was specifically evaluated using the CellTrace Violet reagent (ThermoFisher Cat #C34571) which undergoes dilution with each round of cell division. 1.5×10^6 cells were washed twice in PBS and resuspended in 2 mls of PBS.

TMD8 ABC-DLBCL cells = experiment: Cell proliferation (cell count, trypan blue exclusion), TMD8; type: cell-based; settings: TMD8, single dose of 1 μM, 12 days
From the text: as §1

HRH2 = biological target: T1, HRH2 (Homo sapiens, UniProt P25021); experiment: Eurofins SAFETYscan 78-target panel, off-target effects, HRH2; type: biochemical; settings: antagonist / blocker / inhibitor mode
T1 construct: Eurofins
Procedure: FIG. 9. Table summarizing the Eurofins analysis of potential off-target effects of M1i-124. […] values above 10 μM are generally considered to be acceptable. FIG. 10. Representative hematoxylin and eosin (H&E) staining of organ sections (lung, heart, kidney, liver and adrenal) from control and M1i-124 treated mice described in FIG. 6.
Studies were performed using the services of Touchstone Biosciences and Eurofins Pharma Discovery Services. […] All blood samples (30-50 ul per sample) were taken via tail vein at 5, 15, and 30 minutes, and 1, 2, 4, 6, 8, and 24 hours after dosing. Blood samples are collected in Greiner MiniCollect K2 EDTA tubes, placed on ice, and within 30 minutes, centrifuged at 15,000 g for 5 minutes to obtain plasma samples. All plasma samples are stored at −70° C. until analysis. Plasma samples were prepared for analysis by LC-MS/MS, and key PK parameters, including terminal half-life (t 112), initial plasma concentration (C0), area under the plasma concentration vs. time curve (AUC), volume of distribution at steady-state (Vss), total plasma clearance (CLp), and mean residence time (MRT), were measured.
Assay details are available through Eurofins.

T1 sequence (P25021 whole entry): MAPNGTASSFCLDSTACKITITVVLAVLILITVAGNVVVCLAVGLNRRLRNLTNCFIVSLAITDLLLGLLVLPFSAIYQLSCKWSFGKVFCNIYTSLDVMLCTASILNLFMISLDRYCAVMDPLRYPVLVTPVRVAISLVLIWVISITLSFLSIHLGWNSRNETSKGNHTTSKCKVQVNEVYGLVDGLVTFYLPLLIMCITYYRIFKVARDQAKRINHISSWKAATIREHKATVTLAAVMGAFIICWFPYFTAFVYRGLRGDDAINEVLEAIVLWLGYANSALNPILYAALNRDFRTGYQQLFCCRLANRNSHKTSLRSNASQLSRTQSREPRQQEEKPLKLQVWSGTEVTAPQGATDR

Row | SMILES | Proliferation (OCI-Ly3 ABC-DLBCL cells) | Proliferation (TMD8 ABC-DLBCL cells) | IC50 (HRH2) [nM]
1 | COc1ccc(CNS(=O)(=O)c2ccc(Cc3ccc(S(=O)(=O)NCc4ccc(OC)cc4)cc3)cc2)cc1 [M1i-124d1] | inhibit the proliferation | inhibit the proliferation | –
2 | O=S(=O)(NCc1ccc2c(c1)OCO2)c1ccc(Cc2ccc(S(=O)(=O)NCc3ccc4c(c3)OCO4)cc2)cc1 [M1i-124] | – | – | 2300
